Consider 18 compounds from publication PMC9027131, “Dual PI3K/Akt Inhibitors Bearing Coumarin-Thiazolidine Pharmacophores as Potential Apoptosis Inducers in MCF-7 Cells” (Pharmaceuticals, 2022).

Usually IC50 stands for the concentration needed to halve the response being measured. By melting point is commonly meant the temperature, or range, at which the solid turns liquid.

Where two headings read alike, the source gives them in different places.

In series [1] the test system is MCF-7 cells. Put plainly: MTT cytotoxicity assay in MCF-7 cells. It is filed as cell-based, human. The conditions noted are these: means ± sd, n = 3. The protocol: The in vitro anticancer activity of the designed coumarin-thiosemicarbazones and coumarin-thiazolidine-4-one hybrids against MCF-7 cells was tested using the MTT assay, and 5-fluorouracil (5-FU) was used as the reference drug. The tested compounds were used in different concentrations, and cell survival was determined after incubation for 48 h as reported. The cytotoxic activity is represented in Table 1 as IC50 (µM) values.
(§1) MCF-7 breast cancer cell line (ATCC® HTB-22™) plus non-tumorigenic epithelial cell line (MCF 10, ATCC® CRL-10317™) were supplied from VACSERA (Cairo, Egypt) and cultured in Dulbecco’s Modified Eagle Medium (Invitrogen-Life Technologies, Carlsbad, CA, USA) with 1% antibiotic solution (streptomycin–penicillin) plus 10% fetal bovine serum (Hyclone) in a 5% (v/v) humidified CO2 incubator at 37 °C.
Firstly, cells were kept in a humidified atmosphere (37 °C, 24 h), and then incubated with serial concentrations of the tested compounds. After 48 h, the medium was aspirated, and then cells were incubated with 5% MTT solution (M-5655; Sigma Aldrich, St. Louis, MO USA) (200 µL/well, 2 h), allowing the dye to metabolize into the colored insoluble formazan complex that was then dissolved in the appropriate solubilization solution (M-8910) (200 µL/well), for 30 min with gentle mixing at room temperature. The UV absorbance was measured using a microplate reader (570 nm), and cell viability was determined with respect to untreated control cells. […] The values were means ± sd; n = 3.
A general note: Tetrazolium assays rely on reduction of a dye to a coloured formazan, in cell work by metabolically active cells.

Series [2] relates to Akt. The note with it: Figure 1, reported Akt inhibitor; cited from earlier work.
Series [3] deals with MCF-7 cells. Briefly: Cell cycle analysis by flow cytometry (propidium iodide). It is filed as cell-based, human. The note with it: MCF-7, treated at IC50, 48 h. The protocol: VIIb-treated cells were subjected to cell cycle phase distribution analysis as well as apoptosis rates determination by flow cytometric analysis in MCF-7 cells, as reported.
Control and VIIb-treated (IC50 µM, 48 h) MCF-7 cells were harvested and then subjected to cell cycle analysis by flow cytometry.
Cell cycle analysis and apoptosis rates following VIIb treatment were investigated using a Propidium Iodide Flow Cytometry Kit (ab139418; Abcam, Cambridge, UK) and Annexin V-FITC apoptosis kit (Catalog: K101-25; BioVision Research Products, San Francisco, CA, USA), respectively, following the manufacturer’s instructions as stated by a previous study.

Series [4] concerns MCF 10 non-tumorigenic epithelial cell line. Put plainly: MTT assay in non-cancerous epithelial cells (MCF 10). The class given is cell-based. The note with it: for IC50: Homo sapiens, MCF10, MTT assay, non-cancerous epithelial cells, means ± sd, n = 3; for Selectivity Index MCF-10/MCF-7: ratio of IC50 MCF-10 to IC50 MCF-7. The protocol:
as §1
Firstly, cells were kept in a humidified atmosphere (37 °C, 24 h), and then incubated with serial concentrations of the tested compounds. After 48 h, the medium was aspirated, and then cells were incubated with 5% MTT solution (M-5655; Sigma Aldrich, St. Louis, MO USA) (200 µL/well, 2 h), allowing the dye to metabolize into the colored insoluble formazan complex that was then dissolved in the appropriate solubilization solution (M-8910) (200 µL/well), for 30 min with gentle mixing at room temperature. The UV absorbance was measured using a microplate reader (570 nm), and cell viability was determined with respect to untreated control cells.

Series [5] has as its system PI3K α. The conditions noted are these: cited from earlier work.
In series [6] the test system is PI3K δ. The conditions noted are these: cited from earlier work.
The subject of series [7] is PI3K β. The conditions noted are these: Figure 1, pan PI3K inhibitor; cited from earlier work.
The target of series [8] is T1, Akt-1 (Homo sapiens, UniProt P31749).
T1 construct: purchased Abcam ab139436
Put plainly: Akt Kinase Activity assay kit. It is filed as biochemical. The conditions noted are these: means ± sd, n = 3; read-out: IC50 (µM) Akt-1 Isoform. From the text: Accumulating evidence highlighted that PI3K signaling pathway upregulation is highly implicated in breast cancer development and disease progression as well as resistance to hormones and cytotoxic therapy. Therefore, it is essential to elucidate the effect of the novel compound, VIIb, on the PI3K/Akt signaling pathway by using in vitro PI3K class 1A enzyme inhibition assay conducted on PI3K-α and PI3K-γ isoforms as well as an Akt-1 enzyme inhibition assay. […] Furthermore, targeting the PI3K-γ isoform in breast cancer could contribute to enhancing the anti-tumor immunity.
The in vitro inhibition of PI3K and Akt kinase activities by VIIb was assessed using a PI3Kα (p110α/p85) assay kit (Catalog #79781; BPS Bioscience, Inc, San Diego, CA, USA), PI3Kγ (p110γ/PIK3R5) assay kit (Catalog #79803; BPS Bioscience, Inc, San Diego, CA, USA), and Akt Kinase Activity assay kit (ab139436; Abcam, Cambridge, UK) following the manufacturer’s instructions as described previously. The results were expressed as IC50 values using dose–response curves and linear regression equations. LY294002 compound was taken as the reference compound. The values were means ± sd; n = 3.

T1 sequence (P31749 whole entry, species assumed): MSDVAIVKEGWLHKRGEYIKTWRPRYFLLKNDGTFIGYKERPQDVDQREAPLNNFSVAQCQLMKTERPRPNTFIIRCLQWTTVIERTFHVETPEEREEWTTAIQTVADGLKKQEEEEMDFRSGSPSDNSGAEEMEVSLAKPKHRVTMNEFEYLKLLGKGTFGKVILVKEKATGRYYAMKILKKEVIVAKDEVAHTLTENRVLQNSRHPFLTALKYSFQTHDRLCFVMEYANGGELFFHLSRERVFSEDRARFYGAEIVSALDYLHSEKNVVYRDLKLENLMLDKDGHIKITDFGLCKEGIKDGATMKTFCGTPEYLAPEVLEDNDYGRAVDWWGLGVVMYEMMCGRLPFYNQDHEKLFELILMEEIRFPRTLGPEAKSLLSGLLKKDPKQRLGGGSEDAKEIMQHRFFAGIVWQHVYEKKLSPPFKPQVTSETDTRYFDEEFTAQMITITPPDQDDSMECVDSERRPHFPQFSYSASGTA

`CCOc1ccc2c(C)cc(=O)oc2c1/C(C)=N\NC(=S)NCc1ccccc1` [VId, (Z/E)-1(1-(7-ethoxy-4-methylcoumarin)ethylidene)-4-benzyl-thiosemicarbazone] displayed a melting point of 140 to 143 °C. The IC50 in series [1] (Homo sapiens, MCF7, 48 h) worked out at 2.61 ± 0.14 µM.
In series [1] (Homo sapiens, MCF7, 48 h), `C/C(=N/NC(=S)NC(=O)c1ccccc1)c1c(O)ccc2c(C)cc(=O)oc12` [Vb] showed a half-inhibitory concentration (IC50) of 47.3 ± 2.47 µM.
In turn, `CCOc1ccc2c(C)cc(=O)oc2c1C(C)=NN=C1SCC(=O)N1C` (mixture of isomers) [VIIIa, (Z/E)-2-{[1-(7-Ethoxy-4-methylcoumarin-8-yl)-ethylidene]-hydrazono}-3-methyl-thiazolidin-4-one] showed an IC50 in series [1] (48 h) of 20.3 ± 1.06 µM.
For `NC1(c2ccc(-c3nc4ccn5c(=O)[nH]nc5c4cc3-c3ccccc3)cc2)CCC1` [MK-2206], the IC50 in [2] was 0.008 µM.
For the compound `CCOc1ccc2c(C)cc(=O)oc2c1C(C)=NN=C1SCC(=O)N1CC` (mixture of isomers) [VIIIb, (Z/E)-2-{[1-(7-Ethoxy-4-methylcoumarin-8-yl)-ethylidene]-hydrazono}-3-ethyl-thiazolidin-4-one], the “DNA Content % Pre G1” value in series [3] (control 1.55) is given as 35.25%. In addition, the “DNA Content % G2/M” value in series [3] (control 9.71) is recorded as 5.59%. Moreover, the “DNA Content % S” value in series [3] (control 36.58) amounted to 46.02%. Further, the “DNA Content % G0/G1” value in series [3] (control 53.71) is recorded as 48.39%. It took 57.3 ± 2.99 µM to reach half-maximal inhibition in [1] (48 h) (IC50).
For the compound `CCOc1ccc2c(C)cc(=O)oc2c1/C(C)=N\NC(=S)Nc1ccc(OC)cc1` [VIf], the IC50 in [1] (Homo sapiens, MCF7, 48 h) was found to be 1.21 ± 0.06 µM. In addition, in [4], inhibition was half-maximal at 20.1 ± 1.05 µM (IC50) and the “Selectivity Index MCF-10/MCF-7” value was 16.61.
As for `CS(=O)(=O)N1CCN(Cc2cc3nc(-c4cccc5[nH]ncc45)nc(N4CCOCC4)c3s2)CC1` [Pictilisb], the half-inhibitory concentration (IC50) is […] in series [5] (Figure 1, PI3Ka/d, read-out: IC50 (a)) and […] in series [6] (Figure 1, PI3Ka/d).
`CCNC(=S)N/N=C(/C)c1c(OCC)ccc2c(C)cc(=O)oc12` [VIb, (Z/E)-1(1-(7-ethoxy-4-methylcoumarin)ethylidene)-4-ethyl-thiosemicarbazone] came in with a melting point of 183 °C. Moreover, in series [1] (Homo sapiens, MCF7, 48 h), the IC50 is 38.7 ± 2.09 µM.
Turning to `COc1ccc(-c2nc(N/N=C/c3c[nH]c4ccccc34)nc(N3CCOCC3)c2C#N)cc1` [Compound 1], the IC50 was 0.96 µM in series [5] (Figure 1, pan PI3K inhibitor, read-out: IC50 (α)); 0.94 µM in series [7]; 0.64 µM in series [6] (Figure 1, pan PI3K inhibitor).
Take `CCOc1ccc2c(C)cc(=O)oc2c1/C(C)=N\NC(=S)NC` [VIa, (Z/E)-1(1-(7-ethoxy-4-methylcoumarin)ethylidene)-4-methyl-thiosemicarbazone]: the melting point was in the range of 202 to 204 °C. In addition, in [1] (Homo sapiens, MCF7, 48 h), inhibition was half-maximal at 11.1 ± 0.58 µM (IC50).
Compound `CCOc1ccc2c(C)cc(=O)oc2c1C(C)=NN=C1SCC(=O)N1C(=O)c1ccccc1` (mixture of isomers) [VIIIe, (Z/E)-3-Benzoyl-2-{[1-(7-ethoxy-4-methylcoumarin-8-yl)-ethylidene]-hydrazono}-thiazolidin-4-one] showed an IC50 in [1] (48 h) of 26.4 ± 1.38 µM.
As to `O=c1[nH]cc(F)c(=O)[nH]1` [Compound 5-FU, 5-fluorouracil, reference compound], the concentration for half-maximal inhibition (IC50) turned out to be 27.8 ± 1.41 µM in series [1] (Homo sapiens, MCF7, 48 h) and 36.2 ± 1.89 µM in series [4]. The “Selectivity Index MCF-10/MCF-7” value in [4] amounted to 1.30.
In series [1] (48 h), `CCOc1ccc2c(C)cc(=O)oc2c1C(C)=NN=C1SCC(=O)N1Cc1ccccc1` (mixture of isomers) [VIIId, (Z/E)-3-Benzyl-2-{[1-(7-ethoxy-4-methylcoumarin-8-yl)-ethylidene]-hydrazono}-thiazolidin-4-one] had a half-maximal inhibitory concentration (IC50) of 79.9 ± 4.18 µM.
For `O=c1cc(N2CCOCC2)oc2c(-c3ccccc3)cccc12` [LY294002, reference compound], the IC50 in [8] was determined as 3.53 ± 0.18 µM.
Regarding `C=CCN1C(=O)CSC1=NN=C(C)c1c(OCC)ccc2c(C)cc(=O)oc12` (mixture of isomers) [VIIIc, (Z/E)-3-Allyl-2-{[1-(7-ethoxy-4-methylcoumarin-8-yl)-ethylidene]-hydrazono}-thiazolidin-4-one], the IC50 in [1] (48 h) was 4.95 ± 0.26 µM.
Compound `C=CCNC(=S)N/N=C(/C)c1c(OCC)ccc2c(C)cc(=O)oc12` [VIc, (Z/E)-1(1-(7-ethoxy-4-methylcoumarin)ethylidene)-4-allyl-thiosemicarbazone] had a melting point of 100 to 102 °C. The concentration for half-maximal inhibition (IC50) in series [1] (Homo sapiens, MCF7, 48 h) came out at 2.72 ± 0.13 µM.
Compound `C/C(=N/NC(=S)NCc1ccccc1)c1c(O)ccc2c(C)cc(=O)oc12` [Va] had an IC50 in series [1] (Homo sapiens, MCF7, 48 h) of 5.13 ± 0.28 µM.
On to `CCOc1ccc2c(C)cc(=O)oc2c1/C(C)=N\NC(=S)NC(=O)c1ccccc1` [VIe, (Z/E)-1(1-(7-ethoxy-4-methylcoumarin)ethylidene)-4-benzoyl-thiosemicarbazone], for which the melting point lay within 220 to 223 °C. In series [1] (Homo sapiens, MCF7, 48 h), the IC50 came out at 43.1 ± 2.25 µM.
